# According to US20160220569A1, “CDK4/6 Inhibitor Dosage Formulations For The Protection Of Hematopoietic Stem And Progenitor Cells During Chemotherapy” (G1 Therapeutics, Inc., priority 2015, published 2016):
# Where two headings read alike, the source gives them in different places.
# Assay: 14-day oral gavage toxicokinetic study in rats
# Format: in vivo
# Details: rat, plasma, po; for concentration at 0.5 h / concentration at 1 h / concentration at 2 h / concentration at 4 h / concentration at 8 h / concentration at 12 h / concentration at 24 h / concentration at […]: rats; for concentration at 1 h: Day 14, 1 h; for concentration at 24 h: Day 14, 24 h; for half-life: read-out: t½ (converted)
# Protocol: Plasma was obtained from blood samples collected from rats in a composite sampling scheme, with 3 samples collected per sex, per dose, at each target collection time, as illustrated in Table 21 to Table 25. Samples were collected from the vehicle control group on Day 1 and Day 14 at 3 hour after administration. […] Blood samples were collected in tubes containing K3EDTA as an anticoagulant and placed on ice until processed to plasma via centrifugation. Samples were stored frozen at −80° C. until shipment to the bioanalytical laboratory for analysis.
# The following parameters were determined:
# Cmax: Maximum observed plasma concentration (ng/mL).
# A value of 0 ng/mL was assigned to all values below the lower limit of quantitation (BLQ, <10.0 ng/mL).
# AUC(0-inf): Area under the plasma concentration vs. time curve extrapolated from 0 to infinity (ng*h/mL), calculated as AUC(0-t)+AUC(t-inf) where AUC(t-inf) is calculated as last measurable concentration (CLast) divided by ke, where ke is the elimination rate constant determined by linear regression of the last three analytically measured points on the log plasma concentration vs. time curve. The selection criteria of the data points for inclusion in the calculation of ke required that at least three data points representing the terminal phase (after Tmax) were regressed and that R2≧0.850 when rounded.
# CL: Clearance (L/h/kg), calculated as the dose divided by AUC(0-t).
# Vd: Volume of distribution (L/kg), calculated as dose divided by the product of ke and AUC(0-inf).
# Vdss: Steady state volume of distribution (L/kg), calculated as clearance […] mean residence time, where mean residence time is calculated as the area under the first moment curve divided by AUC(0-t).
# t½: Elimination half-life (h), calculated as ln(2)/ke, where ke is the elimination rate constant determined by linear regression. Half-life was defined as not determined if regression criteria (specified in AUC(0-inf) above) were not met.
# Cmax/Dose: Normalized Cmax, calculated as Cmax divided by total dose.
# AUC/Dose: Normalized AUC, calculated as AUC(0-t) divided by total dose.
# ii. Statistical Analysis Mean and standard deviation (SD) were calculated in Watson. Values of BLQ were assigned a value of 0 ng/mL for mean calculations. Concentration values and derived TK parameters were reported to three significant figures.
# [1] = both sexes, 15 mg/kg, Mean Compound 1 Plasma Concentration, oral 15 mg/kg, Overall
# [2] = both sexes, 15 mg/kg, oral 15 mg/kg, Study Day 1, Overall
# [3] = both sexes, 15 mg/kg, oral 15 mg/kg, Study Day 14, Overall
# [4] = both sexes, 30 mg/kg, Mean Compound 1 Plasma Concentration, oral 30 mg/kg, Overall
# [5] = both sexes, 30 mg/kg, oral 30 mg/kg, Study Day 1, Overall
# [6] = both sexes, 30 mg/kg, oral 30 mg/kg, Study Day 14, Overall
# [7] = female, 2 mg/kg, Compound 1 Plasma Concentration, Female, daily oral 2 mg/kg (Group 7), individual animals
smiles,measurement,setting,value
"CN1CCN(c2ccc(Nc3ncc4cc5n(c4n3)C3(CCCCC3)CNC5=O)nc2)CC1 [Compound 1, 2′-((5-(4-methylpiperazin-1-yl)pyridin-2-yl)amino)-7′,8′-dihydro-6′H-spiro[cyclohexane-1,9′-pyrazino[1′,2′:1,5]pyrrolo[2,3-d]pyrimidin]-6′-one]",concentration at 0.5 h,"both sexes, 15 mg/kg, Mean Compound 1 Plasma Concentration, oral 15 mg/kg, Day 14, 0.5 h, Overall",955 ng/mL
same,concentration at 1 h,[1],1150 ng/mL
same,concentration at 2 h,"both sexes, 15 mg/kg, Mean Compound 1 Plasma Concentration, oral 15 mg/kg, Day 14, 2 h, Overall",1410 ng/mL
same,concentration at 4 h,"both sexes, 15 mg/kg, Mean Compound 1 Plasma Concentration, oral 15 mg/kg, Day 14, 4 h, Overall",1330 ng/mL
same,concentration at 8 h,"both sexes, 15 mg/kg, Mean Compound 1 Plasma Concentration, oral 15 mg/kg, Day 14, 8 h, Overall",1070 ng/mL
same,concentration at 12 h,"both sexes, 15 mg/kg, Mean Compound 1 Plasma Concentration, oral 15 mg/kg, Day 14, 12 h, Overall",715 ng/mL
same,concentration at 24 h,[1],95.3 ng/mL
same,AUC(0-inf),[2],19900 ng·h/mL
same,AUC(0-t),[2],19400 ng·h/mL
same,Cmax,[2],1490 ng/mL
same,Tmax,[2],2 h
same,half-life,[2],4.05 h
same,AUC(0-inf),[3],18700 ng·h/mL
same,AUC(0-t),[3],18100 ng·h/mL
same,Cmax,[3],1410 ng/mL
same,Tmax,[3],2 h
same,half-life,[3],4.47 h
same,concentration at 0.5 h,"both sexes, 30 mg/kg, Mean Compound 1 Plasma Concentration, oral 30 mg/kg, Day 1, 0.5 h, Overall",1790 ng/mL
same,concentration at 2 h,"both sexes, 30 mg/kg, Mean Compound 1 Plasma Concentration, oral 30 mg/kg, Day 1, 2 h, Overall",2360 ng/mL
same,concentration at 4 h,"both sexes, 30 mg/kg, Mean Compound 1 Plasma Concentration, oral 30 mg/kg, Day 1, 4 h, Overall",2380 ng/mL
same,concentration at 8 h,"both sexes, 30 mg/kg, Mean Compound 1 Plasma Concentration, oral 30 mg/kg, Day 1, 8 h, Overall",2160 ng/mL
same,concentration at 12 h,"both sexes, 30 mg/kg, Mean Compound 1 Plasma Concentration, oral 30 mg/kg, Day 1, 12 h, Overall",1800 ng/mL
same,concentration at 0.5 h,"both sexes, 30 mg/kg, Mean Compound 1 Plasma Concentration, oral 30 mg/kg, Day 14, 0.5 h, Overall",1270 ng/mL
same,concentration at 1 h,[4],1880 ng/mL
same,concentration at 2 h,"both sexes, 30 mg/kg, Mean Compound 1 Plasma Concentration, oral 30 mg/kg, Day 14, 2 h, Overall",1800 ng/mL
same,concentration at 4 h,"both sexes, 30 mg/kg, Mean Compound 1 Plasma Concentration, oral 30 mg/kg, Day 14, 4 h, Overall",2180 ng/mL
same,concentration at 8 h,"both sexes, 30 mg/kg, Mean Compound 1 Plasma Concentration, oral 30 mg/kg, Day 14, 8 h, Overall",1920 ng/mL
same,concentration at 12 h,"both sexes, 30 mg/kg, Mean Compound 1 Plasma Concentration, oral 30 mg/kg, Day 14, 12 h, Overall",1800 ng/mL
same,concentration at 24 h,[4],263 ng/mL
same,AUC(0-inf),[5],39400 ng·h/mL
same,AUC(0-t),[5],37500 ng·h/mL
same,Cmax,[5],2380 ng/mL
same,Tmax,[5],4 h
same,half-life,[5],4.98 h
same,AUC(0-inf),[6],37000 ng·h/mL
same,AUC(0-t),[6],35000 ng·h/mL
same,Cmax,[6],2180 ng/mL
same,Tmax,[6],4 h
same,half-life,[6],5.23 h
same,concentration at […],"both, 2 mg/kg, Mean Compound 1 Plasma Concentration, oral 2 mg/kg, Day 14, […], Overall",4 ng/mL
same,concentration at […],"both, 5 mg/kg, Mean Compound 1 Plasma Concentration, oral 5 mg/kg, Day 1, […], Overall",20.8 ng/mL
same,concentration at […],"both, 5 mg/kg, Mean Compound 1 Plasma Concentration, oral 5 mg/kg, Day 14, […], Overall",49 ng/mL
same,concentration at […],"both, 15 mg/kg, Mean Compound 1 Plasma Concentration, oral 15 mg/kg, Day 1, […], Overall",72.5 ng/mL
same,concentration at […],"both, 15 mg/kg, Mean Compound 1 Plasma Concentration, oral 15 mg/kg, Day 14, […], Overall",119 ng/mL
same,concentration at […],"both, 30 mg/kg, Mean Compound 1 Plasma Concentration, oral 30 mg/kg, Day 1, […], Overall",150 ng/mL
same,concentration at […],"both, 30 mg/kg, Mean Compound 1 Plasma Concentration, oral 30 mg/kg, Day 14, […], Overall",372 ng/mL
same,concentration at 0.5 h,"female, 2 mg/kg, Compound 1 Plasma Concentration, Female, Day 1, 0.5 h, daily oral 2 mg/kg (Group 7), individual animals",139 ng/mL
same,concentration at 2 h,"female, 2 mg/kg, Compound 1 Plasma Concentration, Female, Day 1, 2 h, daily oral 2 mg/kg (Group 7), individual animals",216 ng/mL
same,concentration at 12 h,"female, 2 mg/kg, Compound 1 Plasma Concentration, Female, Day 1, 12 h, daily oral 2 mg/kg (Group 7), individual animals",91.8 ng/mL
same,concentration at 0.5 h,"female, 2 mg/kg, Compound 1 Plasma Concentration, Female, Day 14, 0.5 h, daily oral 2 mg/kg (Group 7), individual animals",192 ng/mL
same,concentration at 1 h,[7],108 ng/mL
same,concentration at 2 h,"female, 2 mg/kg, Compound 1 Plasma Concentration, Female, Day 14, 2 h, daily oral 2 mg/kg (Group 7), individual animals",224 ng/mL
same,concentration at 4 h,"female, 2 mg/kg, Compound 1 Plasma Concentration, Female, Day 14, 4 h, daily oral 2 mg/kg (Group 7), individual animals",129 ng/mL
same,concentration at 24 h,[7],21.6 ng/mL
same,concentration at […],"female, 2 mg/kg, Compound 1 Plasma Concentration, Female, Day 14, […], daily oral 2 mg/kg (Group 7), individual animals",20 ng/mL
